# Data taken from patent publication US9629822B2, “Flavonoid based antiviral targets” (UNIVERSITY OF CENTRAL FLORIDA RESEARCH FOUNDATION, INC., priority 2012, dated 2017).
# Where two headings read alike, the source gives them in different places.
# Experiments:
# CHO cells = assay: CHO cell toxicity, MTS assay, 48 h; type: cell-based, Chinese hamster; details: Cricetulus griseus, CHO
# How it was run: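 CHO cells plated at 10,000 cells/mL, incubated overnight, then exposed to drug (final DMSO <1%) for 48 h at 37 °C, 5% CO2, in triplicate. MTS added for a further 4 h; absorbance read at 490 nm. IC50 taken from relative A490 versus drug concentration.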
# [1] = 37° C., MTS reagent, read-out: CHO 48 h IC50 value
Structure (SMILES),IC50 (CHO cells; [1]) [µM],melting point [°C],IC50 (CHO cells; read-out: CHO 48 h IC50 value (μM)) [µM]
"COc1ccccc1-c1oc2ccccc2c(=O)c1O [Compound 9a, 3-Hydroxy-2-(2-methoxyphenyl)-4H-chromen-4-one]",> 100,,
"COc1ccc(Br)cc1-c1oc2ccccc2c(=O)c1O [Compound 9b, 2-(5-Bromo-2-methoxyphenyl)-3-hydroxy-4H-chromen-4-one]",88.5 ± 10.1,159 to 161,
"COc1ccc(Br)cc1/C=C/C(=O)c1ccc2ccccc2c1O [Compound 8m, (E)-3-(5-bromo-2-methoxyphenyl)-1-(1-hydroxynaphthalen-2-yl)prop-2-en-1-one]",15.6 ± 1,117 to 127,
"COc1ccc(Br)cc1/C=C/C(=O)c1c(O)cccc1OCc1ccccc1 [Compound 8l, (E)-1-(2-(Benzyloxy)-6-hydroxyphenyl)-3-(5-bromo-2-methoxyphenyl)prop-2-en-1-one]",8.1 ± 1,,
"COc1ccc(Br)cc1-c1cc(=O)c2c(O)cccc2o1 [Compound 12b, 2-(5-Bromo-2-methoxyphenyl)-5-hydroxy-4H-chromen-4-one]",75.2 ± 8.7,175 to 180,
"COc1ccc(Cl)cc1-c1oc2ccccc2c(=O)c1O [Compound 9h, 2-(5-chloro-2-methoxyphenyl)-3-hydroxy-4H-chromen-4-one]",25 ± 2.2,160 to 167,
"COc1ccccc1-c1cc(=O)c2c(O)cccc2o1 [Compound 12a, 5-Hydroxy-2-(2-methoxyphenyl)-4H-chromen-4-one]",,,> 100
